# In PubChem BioAssay AID463203 (Broad Institute, 2010):
# Calls of active or inactive are those of the source.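 How the source made its calls: active means more than half of replicate measurements showing over 20% loss of kinase signal relative to plate controls; inconclusive means some but at most half of replicates over 20% loss; inactive means no replicate over 20% signal loss.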
# Target: Glycogen synthase kinase-3 alpha (Homo sapiens) (UniProt P49840)
# Test: concentration-response blocking of human GSK3A – biochemical, luminescence, cell-free homogeneous, retest, dose response (AID 463203)
# Details: GSK-3 alpha enzyme, ADP-Glo luminescence, 60 min
# Glycogen synthase kinase-3 alpha (Homo sapiens), sequence (P49840 whole entry, looked up): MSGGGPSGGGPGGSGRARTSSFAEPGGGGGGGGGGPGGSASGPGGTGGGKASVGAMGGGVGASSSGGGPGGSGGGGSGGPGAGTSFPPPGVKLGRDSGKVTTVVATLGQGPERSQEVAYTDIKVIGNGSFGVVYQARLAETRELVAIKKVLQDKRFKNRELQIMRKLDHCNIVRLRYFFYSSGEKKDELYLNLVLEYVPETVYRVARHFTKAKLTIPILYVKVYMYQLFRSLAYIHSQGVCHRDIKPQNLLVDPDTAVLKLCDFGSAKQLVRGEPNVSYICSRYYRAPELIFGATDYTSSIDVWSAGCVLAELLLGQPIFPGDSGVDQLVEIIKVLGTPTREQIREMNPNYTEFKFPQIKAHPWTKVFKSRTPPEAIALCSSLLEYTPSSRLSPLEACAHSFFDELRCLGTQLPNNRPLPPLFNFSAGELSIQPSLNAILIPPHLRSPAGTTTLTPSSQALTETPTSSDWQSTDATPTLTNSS
row,SMILES,AC50
1,Cc1nnc(SCC(=O)Nc2sc3c(c2C(=O)c2ccccc2)CCCC3)s1,> 30 µM (inactive)
2,COc1ccccc1NC(=O)CSc1nnc(-c2ccncc2)o1,> 30 µM (inactive)
3,N#Cc1c(Cl)c(Cl)c2nnc(-c3ccc(Br)cc3)n2c1Cl,20.6 µM
4,COc1cccc(CC(=S)N2CCOCC2)c1,> 30 µM (inactive)
5,Cc1ccc(O)c(C(=O)c2coc(=N)c(C(=O)NC(C)C)c2)c1,22.1 µM
6,COCCNc1nc(C)cc(-c2cc(C(=O)NC3CCCC3)on2)n1,> 30 µM (inactive)
7,CC(OC(=O)Cc1c[nH]c2ccccc12)C(=O)c1ccccc1 (stereo not drawn),> 30 µM (inactive)
8,NC(=O)c1cc([N+](=O)[O-])ccc1NCc1cccc([N+](=O)[O-])c1,3.49 µM
9,O=C(COC(=O)c1cc([N+](=O)[O-])ccc1N1CCOCC1)Nc1ccc(Cl)cn1,4.79 µM
10,CCOC(=O)c1sc(NC(=O)C2CCC2)cc1C,> 30 µM (inactive)
11,Cc1nc(NC(=O)c2ccc(Br)o2)sc1C,> 30 µM (inactive)
12,COc1cccc(C(=O)O/N=C(\N)c2ccccn2)c1OC,> 30 µM (inactive)
13,COc1cccc(-c2c(C(=O)N/N=C(\C)c3cccnc3)nnn2-c2nonc2N)c1,> 30 µM (inactive)
14,CN1CCc2nc3sc(C(=O)NC4CC4)c(N)c3cc2C1,> 30 µM (inactive)
15,COc1ccccc1/C=N/NC(=O)c1nnn(-c2nonc2N)c1-c1cccs1,0.779 µM
16,O=C(NCCO)c1ccccc1O,> 30 µM (inactive)
17,COc1ccc(/C=C/c2nc(N)nc(-c3ccccc3O)n2)cc1OC,> 30 µM (inactive)
18,Cc1cccc(-n2ncc(C#N)c2-n2cccc2)c1,> 30 µM (inactive)
19,O=C(NCc1c(F)cccc1F)c1cc(COc2c(F)cccc2F)on1,> 30 µM (inactive)
20,O=C1/C(=C/c2ccc3c(c2)OCO3)Oc2cc(OCC(=O)N3CC(O)C[C@H]3C(=O)O)ccc21 (stereo partly drawn),4.07 µM
21,CN1/C(=C\C=C2C(=O)NC(=O)NC2=O)C(C)(C)c2ccccc21,27.9 µM
22,N#Cc1c(C#N)c(-c2ccccc2)n(-c2ccc(C(=O)O)cc2)c1N,14.2 µM
23,COc1ccc(C2CC(=O)Nc3n[nH]c(-c4ccccc4)c32)cc1OC (stereo not drawn),26.9 µM
24,NCCNc1cc(N2CCCC2)ccc1[N+](=O)[O-],> 30 µM (inactive)
25,COc1c(NC(C)=O)c2ccccc2c2ccccc12,> 30 µM (inactive)
26,CCOc1ccc(-n2c(SCC(=O)Nc3ccccc3C)n[nH]c2=O)cc1,> 30 µM (inactive)

row,SMILES,AC50
1,CC(C)(C)c1cc(-c2nc(N)nc(N)n2)c(O)c(C(C)(C)C)c1,> 30 µM (inactive)
2,CSc1ccc(C2C3(C#N)C(N)=NC4(OCCO4)C23C#N)cc1 (stereo not drawn),> 30 µM (inactive)
3,O=C(Nc1ccccc1-c1nnc(SCc2ccccc2)o1)c1ccccc1,> 30 µM (inactive)
4,COc1ccccc1Nc1nc(NCCCCO)nc(N2CCCC2)n1,> 30 µM (inactive)
5,Cn1cc(C(=O)c2cccc(Cl)c2)cc1/C=N\O,28.3 µM
6,COCC(O)CSc1nc(C)[nH]c1[N+](=O)[O-] (stereo not drawn),> 30 µM (inactive)
7,CC(C)NC(=O)NC(=O)CSc1nncn1C,> 30 µM (inactive)
8,CSCCC1NC(=S)N(Cc2ccccc2)C1=O (stereo not drawn),> 30 µM (inactive)
9,Cc1cccc(OCC(=O)N2CCN(c3nnc(-c4ccccc4)c4ccccc34)CC2)c1,> 30 µM (inactive)
10,COc1cc(CN2CCN(Cc3ccc([N+](=O)[O-])cc3)CC2)c([N+](=O)[O-])cc1OC,> 30 µM (inactive)
11,CC(C)c1ccc(C2CC(=O)N3CN(Cc4ccco4)CSC3=C2C#N)cc1 (stereo not drawn),21 µM
12,CCCc1c(C(=O)N/N=C/c2cccnc2)nnn1-c1nonc1N,> 30 µM (inactive)
13,CN(C)Cc1c(C(=O)N/N=C/c2ccc(-c3ccccc3)cc2)nnn1-c1nonc1N,> 30 µM (inactive)
14,Nc1ncnc2c1ncn2[C@H]1C[C@H](O)[C@@H](CO)O1,> 30 µM (inactive)
15,CCOC(=O)c1nn(-c2ccc(Cl)cc2)c2nc(Nc3ccccc3)cc(=O)n12,> 30 µM (inactive)
16,CCNc1c(C(=O)O)ccc2c1C(=O)c1ccccc1C2=O,> 30 µM (inactive)
17,COC(=O)[C@H](C)NC(=O)NCc1ccccc1F,> 30 µM (inactive)
18,O=C(CSc1nc2[nH]ncc2c(=O)n1-c1ccccc1)NCCc1ccccc1,8.62 µM
19,CCN1C(=S)SC(=O)C1=C1C=C(C)N(Cc2ccco2)C(C)=C1,> 30 µM (inactive)
20,CCOCC(=O)Nc1nc2ccc(OCC)cc2s1,> 30 µM (inactive)
21,C/C(=N\NC(=O)c1nnn(-c2nonc2N)c1-c1cccs1)c1ccc(O)cc1,1.17 µM
22,COc1cc(C(=O)NNC(=O)C2CSC3(C)CCC(=O)N23)cc(OC)c1OC (stereo not drawn),> 30 µM (inactive)
23,O=C(CSc1nc2nc(-c3cccs3)cc(C(F)(F)F)c2c(=O)[nH]1)Nc1ccc(F)c(F)c1,> 30 µM (inactive)
24,O=C(/C(=N/N=C/c1ccc(O)c(O)c1)c1ccccc1)c1ccccc1,> 30 µM (inactive)
25,Cc1ccc(-c2nnc3n2N=C(c2ccccc2Br)CS3)cc1,> 30 µM (inactive)
26,Cn1nnnc1SCC(=O)Nc1nn(-c2ccccc2)nc1C(N)=O,24.2 µM

row,SMILES,AC50
1,Cc1ccc(C(=O)c2c(NC(=O)CSc3nnc(N)s3)sc3c2CCCC3)cc1,> 30 µM (inactive)
2,O=C(Nc1nc2c(s1)CCCC2)c1ccc(Br)s1,> 30 µM (inactive)
3,COc1cccc(NC(=O)[C@@H]2CCCN2S(=O)(=O)c2cccc3cccnc23)c1,18.1 µM
4,COc1cc2c(cc1OC)C(C)N(C(=O)Cn1ncc3c1-c1cc(C)ccc1OC3)CC2 (stereo not drawn),> 30 µM (inactive)
5,COc1cccc(C(=O)NCC(=O)OCC(=O)c2ccccc2)c1,> 30 µM (inactive)
6,O=C(CSc1ccc2nnc(-c3ccccn3)n2n1)N1CCOCC1,> 30 µM (inactive)
7,O=C1/C(=C/c2ccc(Br)cc2)Oc2cc(O)ccc21,> 30 µM (inactive)
8,CCOc1ccc(S(=O)(=O)Nc2cccc(C(=O)NCCCn3ccnc3)c2)cc1,> 30 µM (inactive)
9,CCCNC(=O)Cn1c(-c2ccc(F)cc2)cc(C(=O)OCC)c1C,> 30 µM (inactive)
10,COc1ccccc1N/C=C/c1onc(C)c1[N+](=O)[O-],> 30 µM (inactive)
11,Cc1cc2nc(-c3ccc(SCC(=O)NC(C)C)nc3)[nH]c2cc1C,> 30 µM (inactive)
12,CCN1C(=O)/C(=C/c2cccs2)N(C)C1=S,> 30 µM (inactive)
13,COc1ccc(OCC(=O)NCCCn2ccnc2)cc1,> 30 µM (inactive)
14,CC(C)(C)OC(=O)N1CCN(C(=O)c2[nH]cnc2C(=O)Nc2ccon2)CC1,> 30 µM (inactive)
15,CCn1c(C)nc2cc(-c3nc4n(n3)Cc3ccccc3-4)ccc21,16.1 µM
16,COc1ccc([C@H]2[C@H](C(=O)C(C)(C)C)N3N=Cc4ccccc4C3[C@]23N=C(c2ccccc2)OC3=O)cc1OC (stereo partly drawn),> 30 µM (inactive)
17,Nc1nc(N)nc(-c2cc([N+](=O)[O-])ccc2O)n1,2.41 µM
18,Cc1ccc(-n2nnnc2SCc2nnc(-c3ccccc3Br)o2)cc1,> 30 µM (inactive)
19,NC(=O)N/N=C/c1c(O)ccc2oc3c(c12)CCCC3,0.845 µM
20,O=C(NCc1ccc(C(=O)N2CCC3(CC2)OCCO3)cc1)c1ccc2c(c1)OCO2,> 30 µM (inactive)
21,COc1cccc(NC(=O)Nc2cc(Cl)ccc2C)c1,> 30 µM (inactive)
22,Cc1c(C(=O)NCCc2ccccc2)oc2ccccc12,> 30 µM (inactive)
23,O=C1c2c(O)ccc(O)c2C(=O)c2c(NCCNCCO)ccc(NCCNCCO)c21,28.3 µM
24,c1csc(CNc2ncnc3sccc23)c1,> 30 µM (inactive)
25,CC(=O)C1C(c2ccc(C)cc2)c2c(n[nH]c2C)CC1(C)O (stereo not drawn),> 30 µM (inactive)
26,CCOC(=O)N1CCc2c(sc3nc(SC(C)C)n(N)c(=O)c23)C1,> 30 µM (inactive)

row,SMILES,AC50
1,COc1ccc(Cl)cc1Nc1nc(N)c2ccccc2n1,> 30 µM (inactive)
2,CCCCCCCCCCCCCCCC[N+](C)(C)CC,> 30 µM (inactive)
3,COc1ccccc1-c1noc(CSc2nc(C)cc(=O)[nH]2)n1,> 30 µM (inactive)
4,Cc1ccc(C2C3=C(CCCC3=O)Nc3c2c(C)nn3-c2ccccn2)o1 (stereo not drawn),> 30 µM (inactive)
5,O=C(Nc1ccc(Cl)cn1)c1cccc(S(=O)(=O)N2CCOCC2)c1,> 30 µM (inactive)
6,COc1cc(OC)cc(C2C(C#N)=C(N)Oc3n[nH]c(-c4cccnc4)c32)c1 (stereo not drawn),> 30 µM (inactive)
7,CC12CCC(C(=O)Nc3ncc([N+](=O)[O-])s3)(OC1=O)C2(C)C (stereo not drawn),> 30 µM (inactive)
8,CCOc1ccc2nc(NC(=O)CSc3ccccc3)sc2c1,> 30 µM (inactive)
9,Nc1cc(C(=O)O)c(N)c2c1C(=O)c1ccccc1C2=O,7.46 µM
10,CC1CCCN(Cc2c(O)ccc3c2O/C(=C\c2ccco2)C3=O)C1 (stereo not drawn),9.29 µM
11,O=C(Nc1c(C(=O)C2CC2)oc2ccccc12)c1ccc(Cl)cc1,> 30 µM (inactive)
12,CCN(C(=O)CN1CCCCC1)c1c(N)n(Cc2ccccc2)c(=O)[nH]c1=O,> 30 µM (inactive)
13,CCc1ccc(C2CC(c3ccc(Cl)cc3)n3nc(N)nc3N2)cc1 (stereo not drawn),> 30 µM (inactive)
14,CCc1ccc(C2C3=C(CC(C)(C)CC3=O)Nc3c2c(=O)[nH]c2nc(C)nn32)cc1 (stereo not drawn),> 30 µM (inactive)
15,Cn1c(SCC(=O)N/N=C/C=C/c2ccco2)nc2ccccc21,> 30 µM (inactive)
16,COc1ccc(-c2noc(CSc3nc(N)c(-c4ccccc4)c(=O)[nH]3)n2)cc1,> 30 µM (inactive)
17,CCCCSc1nc(N)c(C#N)c(-c2cccs2)c1C#N,> 30 µM (inactive)
18,Cc1cc2nc(-c3ccc(=O)[nH]c3)n(Cc3ccccc3)c2cc1C,> 30 µM (inactive)
19,O=c1[nH]c(=O)n(C2CCCCC2)c(O)c1C=NCCCn1ccnc1,4.06 µM
20,CCSC1(SCC)N=C(N)C2(C#N)C(c3ccc(F)cc3)C12C#N (stereo not drawn),> 30 µM (inactive)
21,COc1cccc(/C=C2\Oc3cc(OCC(=O)N4CCC[C@H]4C(=O)O)ccc3C2=O)c1,> 30 µM (inactive)
22,CC(=NCCO)c1c(O)n(C2CCCCC2)c(=O)[nH]c1=O,26.9 µM
23,COc1ccc(NC(=O)c2ccc(NCC3CCCO3)c([N+](=O)[O-])c2)cc1 (stereo not drawn),> 30 µM (inactive)
24,COc1cc(C(=O)NCCC(=O)NCCN2CCOCC2)cc(OC)c1OC,> 30 µM (inactive)
25,O=C(CN1CCCCCC1)Nc1ccccc1Oc1ccccc1,> 30 µM (inactive)
